US20070104774A1, “Method for preparing phytosphingosine liposome composition” (priority 2003, published 2007)

How the values were obtained:
[1] = Stability test of water lotion formulation of phytosphingosine liposome: size and sedimentation on storage at R.T. and low temperature; assay type: physicochemical; conditions: dissolved using an acid only such as lactic acid; as time went by and at low temperatures
Experimental: For a liposome solution containing 4 wt. % of phytosphingosine prepared according to Examples 3 and 7 and a solution in which the liposome solution was diluted so as to make a final concentration of phytosphingosine be 0.5% in a water lotion product, it was examined a stability of phytosphingosine liposome in water lotion formulation, based on sizes and sedimentation states as time went by and sizes and sedimentation states when storing at R.T. and a low temperature, respectively. Water lotion formulations used in the above test are as follows. The unit is wt. %. In water lotion formulations of liposome containing phytosphingosine, results of size variations as time went by are as follows. The unit is nm.

[2] = cited from earlier work

## CCCCCCCCCCCCCC[C@@H](O)[C@@H](O)[C@@H](N)CO [phytosphingosine]
[1]
  behaviour on storage: recrystallized
[2]; isocetyl alcohol solvent
  solubility in isocetyl alcohol: 1 wt. %
[2]; water
  solubility in water: never dissolved in water
